From US20210198629A1, “COMPOSITIONS AND METHODS FOR INCREASING BEIGING OF WHITE ADIPOSE TISSUE” (University of Georgia Research Foundation, Inc., priority 2018, published 2021)

What was measured:
DIO mice = experiment: Body weight, adiposity (BIS), food intake, treadmill exhaustion in DIO mice after oral BI-7273; assay type: in vivo, mouse
Experimental: Treadmill exhaustion test was performed with an Exer 3/6 treadmill and controller (Columbus Instruments). The treadmill was set up with a uphill inclination of 10%.
Mice were anesthetized with 1% isoflurane and lied flat dorsal side up with limbs perpendicular and tail straight. Four electrodes of ImpediVET were fastened with 28G needles and placed on four points on the midline of the body. Fat-free mass (FFM) and fat mass (FM) were calculated from total body water (TBW) determined by input body weight and complex impedance plotting of 256 frequencies between 4 kHz and 1000 kHz.
Given the above augmentation of whole-body energy expenditure in BI-7273 treated DIO models, whether BI-7273 is sufficient to induce body weight loss and reduce adiposity (anti-obesity effects) was also investigated. DIO models were gavaged with BI-7273 or control 0.5% Natrosol for 14 days as described above and later fed with HFD for one additional month. […] On average, BI-7273 treated DIO mice lost ˜15.5% of body weight at the end of the study (1.5 months after the start of gavage; FIG. 5F). This weight loss rate is higher than the criterium established by the Endocrine Society for effective treatment of obesity (>5% weight loss over three months) (Apovian, C. M., et al., J Clin Endocrinol Metab, 100, 342-362 (2015)).
Using bioimpedance spectroscopy (BIS), the adiposity (fat mass percent) of mice before and after gavage was measured. […] On average, the reduced fat mass (55 grams×21%=11.6 grams) in BI-7273 treated mice was more than the body weight loss at the end of the study (˜9 grams), which indicates a concomitant increase of lean mass in BI-7273 treated DIO mice.

[1] = tested on: primary white adipose progenitor cells; experiment: RT-qPCR of markers after treating proliferative primary white adipose progenitor cells, then basal differentiation
Experimental: Tissue suspension was sequentially filtered through 100 and 70 μm cell strainers and centrifuged at 800×g for 5 min to pellet SVF cells.
The cell pellet was resuspended in a growth medium (DMEM high glucose containing 20% FBS and 1% penicillin/streptomycin), plated on collagen-coated cell culture plates, and cultured at 37° C. with 5% CO2. To expand adipose progenitor cells, proliferative adipose progenitor cells were passaged for two times when the confluence reaches 70%.
To differentiate into adipocytes, white adipose progenitor cells were cultured in growth media to reach 100% confluence for 1 day. […] After 2-day induction, the media was changed to basal differentiation medium (DMEM high glucose containing 10% FBS, 850 nM insulin, 1% penicillin/streptomycin) and further incubated for 4-5 days. To differentiate beige adipocytes, fully confluent white adipose progenitor cells were incubated with the above induction medium supplemented with 2 mM rosiglitazone and 1 nM T3 for 2 days and further differentiated in the basal differentiation medium supplemented with 1 mM rosiglitazone and 1 nM T3 for 4-5 days.
Total RNA was isolated from tissue or cell culture using TRIzol. Total RNA (500 ng) from tissues or cell culture was used in 25 μL reverse transcription reactions (Maxima; Life technologies) and diluted into 250 μL. Diluted cDNA (2 μL) was used in quantitative PCR reactions (SsoAdvanced™ Universal SYBR Green mix; Bio-Rad) on a BioRad CFX384™ Real-Time PCR Detection System. Cq-values were determined and expression values were calculated by BioRad CFX Manager™ Software. Relative mRNA expression values were normalized to inner reference genes Rps18 and Tbp of each biological sample.

type 2 diabetic DIO mice = experiment: Blood glucose, HbA1c, HOMA-IR, IPGTT, IPITT in DIO mice after oral BI-7273; assay type: in vivo, mouse
Experimental: Blood samples were taken from the tail vein and measured on HbA1c cartridges (5035C) loaded in a DCA Vantage Analyzer (Siemens).
(§1) IPGTT was performed after 16 hrs fasting. Glucose (2 g kg^−1 body weight) was injected intraperitoneally. Blood samples were taken from the tail vein. Glucose levels were measured at 0, 15, 30, 60, and 120 min after glucose injection using a glucometer (OneTouch, Ultra 2).
as §1, with “IPITT” for “IPGTT”, “6” for “16”, “Insulin (0.75 U” for “Glucose (2 g”, “weight, Roche Risch-Rotkreuz, Switzerland)” for “weight)”, “insulin” for “glucose”
Next, whether BI-7273 oral administration is sufficient to protect DIO models from type 2 diabetes was investigated. Before gavage (3 months after HFD feeding), DIO models developed diabetes as evidenced by 1) averaged random non-fasting blood glucose level at ˜250 mg/dL; and 2) averaged glycated hemoglobin (HbA1c) level at 6.5% (FIG. 6A, B). […] Upon HFD feeding, C57BL/6 mice are predisposed to type 2 diabetes, which is characterized by insulin resistance (averaged HOMA-IR index=95; FIG. 6C)(32). BI-7273 oral administration lowered HOMA-IR index (to ˜55%; FIG. 6C), indicating much improved β-cell function and insulin resistance.

[2] = 10 μM for 48 hours in progenitor stage, then basal differentiation, vs 0.1% DMSO
[3] = 14-day oral administration, 1 month HFD refeeding

Structure (SMILES): COc1cc(-c2cn(C)c(=O)c3cnccc23)cc(OC)c1CN(C)C [BI-7273, 4-[4-[(dimethylamino)methyl]-3,5-dimethoxyphenyl]-2-methyl-2,7-naphthyridin-1-one]
- reduced fat mass (DIO mice; 55 grams×21%, end of study): 11.6 grams
- adiposity (fat mass percent) (DIO mice; BIS, end of study, 1.5 months after the start of gavage, ~47% before gavage): ~26%
- treadmill performance (time until exhaustion) (DIO mice; after treatment): improved
- food intake (DIO mice; before and after gavage, vs control group): comparable
- body weight lost (DIO mice; end of study, 1.5 months after the start of gavage, HFD refeeding): ~15.5%
- body weight loss (DIO mice; end of the study): ~9 grams
- lean mass (DIO mice; inferred from fat mass vs body weight loss): increase
- adipocyte markers (Pparg2, Leptin, Adiponectin, Fabp4) [1, 2]: not affected
- mRNA levels of beige lineage markers (Pgc1α, Ucp1, Cedia, Dio2, Elovl3) [1, 2]: drastically increased
- mRNA levels of mitochondrial markers (Ndufb2, Sdha, Uqcrc2, Cox8b, Atp5a1) [1, 2]: increased
- Pgc1β mRNA level ([1]; proliferative white adipose progenitor cells, vs vehicle): increased
- HbA1c level (type 2 diabetic DIO mice; 100 mg/kg/day oral for 14 days, 6.5% before gavage): ~5%
- random non-fasting blood glucose level (type 2 diabetic DIO mice; 100 mg/kg/day oral for 14 days, ~250 mg/dL before gavage): 130 mg/dL
- glucose tolerance (IPGTT) (type 2 diabetic DIO mice; [3]): drastically improved
- insulin sensitivity (IPITT) (type 2 diabetic DIO mice; [3]): drastically improved
- HOMA-IR index (type 2 diabetic DIO mice; oral administration, averaged index 95 upon HFD feeding): ~55%
